pIC50: −log10 of the molar value. Counter-ions that a name gives are not always drawn. Like-named read-outs stand apart in the source and are kept apart here. Blank lines part the entries; values can stand above or below the compound they belong to.
Legend:
[1] = target: KSR2 (purified hKSR2-rMEK1 complex) (Homo sapiens (Human), UniProt Q6VAB6); experiment: ATP-biotin probe labeling and inhibitor competition (KSR2 band); assay type: binding; conditions: for competition of ATPbiotin probe labeling in KSR2:MEK1 complexes (in words): screen / SAR statements; for KSR binding (assessed): panel of known kinase inhibitors
Sequence of KSR2 (purified hKSR2-rMEK1 complex) (Q6VAB6 634-950): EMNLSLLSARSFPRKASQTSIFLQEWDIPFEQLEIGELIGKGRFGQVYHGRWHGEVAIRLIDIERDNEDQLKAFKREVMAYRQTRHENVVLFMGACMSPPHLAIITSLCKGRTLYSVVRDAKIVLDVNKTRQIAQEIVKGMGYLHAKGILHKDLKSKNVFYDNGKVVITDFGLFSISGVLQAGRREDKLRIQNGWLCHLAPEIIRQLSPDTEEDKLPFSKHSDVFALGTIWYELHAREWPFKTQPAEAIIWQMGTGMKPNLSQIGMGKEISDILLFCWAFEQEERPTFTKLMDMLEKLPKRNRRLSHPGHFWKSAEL
Sequence of KSR2 (purified hKSR2-rMEK1 complex) (P29678 whole entry partner, the tested form may be a part): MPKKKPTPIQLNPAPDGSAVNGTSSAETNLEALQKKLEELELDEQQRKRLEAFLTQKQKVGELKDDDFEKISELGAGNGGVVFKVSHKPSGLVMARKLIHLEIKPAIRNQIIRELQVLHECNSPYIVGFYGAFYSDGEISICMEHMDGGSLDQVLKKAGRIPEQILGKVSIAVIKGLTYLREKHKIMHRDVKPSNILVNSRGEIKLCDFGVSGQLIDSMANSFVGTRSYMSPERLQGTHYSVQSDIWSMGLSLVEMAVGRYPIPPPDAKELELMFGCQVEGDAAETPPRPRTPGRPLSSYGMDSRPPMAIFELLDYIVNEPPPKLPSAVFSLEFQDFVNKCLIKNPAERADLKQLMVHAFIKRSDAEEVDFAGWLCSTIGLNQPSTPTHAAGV
From the text: Human KSR2 (residues 634-950) and rabbit MEK1 (residues 1 to 393) were codon optimized for insect cell expression by DNA 2.0. Inserts were expressed with TEV cleavable 6×-His tags from the pFastBac Dual expression vector. Bacmids were used to transfect adherent SF21 cells and viruses were subsequently titred to high levels through serial infections of SF21 cells. […] Briefly, following infections, cells were harvested, lysed, and affinity purified using Co2+ sepharose resin (GoldBio). […] Dialysis retentate was diluted 3 fold and then applied to a Resourse S ion exchange column. […] One-to-one hKSR2-MEK1 complexes were captured in late fractions from an increasing salt gradient. Complexes were later applied to a 120 mL Superdex 200 gel filtration column and finally concentrated to approximately 10 mg/mL before flash freezing for biochemical assays.
The ATP-biotin assay was performed in buffer containing 25 mM Tris pH 7.5, 150 mM NaCl, 10 mM MgCl2, and 2% DMSO. […] In particular, hKSR2-rMEK1 was pre-incubated with 20 μM of the indicated compounds for 15 minutes. Then, ATP-biotin (Pierce Cat. #88310) was added to a final concentration of 2 μM. Reactions were incubated at room temperature for 5 minutes before being stopped by the addition of 6×SDS loading dye. […] Enhanced chemiluminescence signals corresponding to labeling on KSR2 and MEK1 were visualized and quantified using the Biodoc system (Biorad). Relative signals of Streptavidin HRP on bands corresponding to KSR2 and MEK1 in the presence of compounds relative to DMSO controls were used to determine ‘Percent Inhibition of ATP Probe Labeling’.
For the ATP^biotin labeling competition screen, samples were applied to a 4-20% Tris-HCl gel, separated, and then transferred to a nitrocellulose membrane. The membrane was blocked with 5% bovine serum albumin diluted in TBS-T for 30 minutes and subsequently probed with the Pierce™ High Sensitivity Streptavidin-HRP. After several washes, the membranes were visualized using enhanced chemiluminescence on a Biodoc (Biorad).

[2] = tested on: MAPK pathway readouts (pERK, pMEK, pRSK) in A375 and HCT-116; experiment: Western blot of MAPK pathway readouts, treatment with trametinib combinations; assay type: cell-based; conditions: for MAPK pathway inhibition (pERK, pMEK, pRSK) in combination with trametinib: combined with trametinib, A375 and HCT-116
KSR2:B-RAF^F667E dimers = KSR2:B-RAF^F667E dimers (Homo sapiens, UniProt Q6VAB6); experiment: Biolayer inferometry of KSR2:B-RAF dimerization (Octet Red96); assay type: binding; conditions: compound at 25 μM
Description: B-RAF and B-RAF mutants (F667E+/−R509H) were immobilized on sensor-heads and KSR2:MEK1 or MEK1 assembly was monitored. Curves indicate dose ranges of KSR2:MEK1 or MEK1 from 625 nM to 10 μM. In all plots, association occurred from 0 to 660 seconds, and dissociation was monitored thereafter up to 1500 seconds. Compound 21 and trametinib were added in the presence of KSR2:MEK1 at a concentration of 25 μM each.
To directly investigate the impact of Compound 21 on KSR2:B-RAF dimerization, bio-layer inferometry (BLI) was utilized to monitor real-time association and dissociation of KSR2:MEK1 or free MEK1 to a sensor tethered with immobilized B-RAF.
To specifically monitor KSR2:B-RAF dimerization relative to other possible interactions, a mutation in B-RAF^F667E was identified that eliminates binding to free MEK but not KSR2-MEK1 complexes, as shown in FIGS. 7C-7D. […]
Interactions between purified B-RAF and the KSR2:MEK1 complex were measured using biolayer inferometry on the Octet Red96 system (Forte Bio). […] Association and dissociation was monitored over 660 and 840 seconds, respectively. Data sets were normalized and analysed using global fit binding models (Fortebio software). […]

[3] = tested on: KSR-stimulated MEK and ERK phosphorylation; experiment: Cell-based reconstitution system monitoring KSR-driven MAPK signaling; conditions: for suppression of KSR-stimulated MEK and ERK phosphorylation: KSR expression-dependent MAPK signaling
From the text: To assess the biological function of lead compounds as Ras-MAPK pathway antagonists, a simplified cell-based reconstitution system was developed to directly monitor KSR-driven MAPK signaling. […] Based on similarity in phenotype and direct-binding activity, Compound 21 was identified as a small molecule mimic of KSR alleles that suppress oncogenic Ras mutations.

[4] = target: MEK1 (purified hKSR2-rMEK1 complex) (Oryctolagus cuniculus (Rabbit), UniProt P29678); experiment: ATP-biotin probe labeling competition (MEK1 band); assay type: binding; conditions: competition with free ATP, purified KSR2:MEK1; read-out: free ATP IC50, ATPbiotin labeling of MEK1
Sequence of MEK1 (purified hKSR2-rMEK1 complex) (P29678 whole entry, the tested form may be a part): as the sequence (P29678 whole entry partner, the tested form may be a part) above
Sequence of MEK1 (purified hKSR2-rMEK1 complex) (Q6VAB6 634-950 partner): as the sequence (Q6VAB6 634-950) above
From the text: Human KSR2 (residues 634-950) and rabbit MEK1 (residues 1 to 393) were codon optimized for insect cell expression by DNA 2.0. Inserts were expressed with TEV cleavable 6×-His tags from the pFastBac Dual expression vector. Bacmids were used to transfect adherent SF21 cells and viruses were subsequently titred to high levels through serial infections of SF21 cells. […] Briefly, following infections, cells were harvested, lysed, and affinity purified using Co2+ sepharose resin (GoldBio). […] Dialysis retentate was diluted 3 fold and then applied to a Resourse S ion exchange column. This step removed excess MEK1, which binds weakly to the S column. One-to-one hKSR2-MEK1 complexes were captured in late fractions from an increasing salt gradient. Complexes were later applied to a 120 mL Superdex 200 gel filtration column and finally concentrated to approximately 10 mg/mL before flash freezing for biochemical assays.
The ATP-biotin assay was performed in buffer containing 25 mM Tris pH 7.5, 150 mM NaCl, 10 mM MgCl2, and 2% DMSO. Purified hKSR2-rMEK1 was assayed at 0.5 μM. In particular, hKSR2-rMEK1 was pre-incubated with 20 μM of the indicated compounds for 15 minutes. Then, ATP-biotin (Pierce Cat. #88310) was added to a final concentration of 2 μM. […] Enhanced chemiluminescence signals corresponding to labeling on KSR2 and MEK1 were visualized and quantified using the Biodoc system (Biorad). […]

[5] = ATPbiotin probe labeling competition, 0.1 μM KSR2:MEK1, 27 nM to 20 μM compound, triplicate, read-out: KSR2 IC50

enhancement of KSR2:B-RAF dimerization (KSR2:B-RAF^F667E dimers): ~2 fold
SMILES: CC(=O)Nc1cccc(-n2c(=O)n(C3CC3)c(=O)c3c(Nc4ccc(I)cc4F)n(C)c(=O)c(C)c32)c1 [trametinib, reference compound]
MAPK pathway inhibition (pERK, pMEK, pRSK), single agent ([2]; alone, compared with Compound 21 + trametinib co-treatment): did not display the same pathway inhibition

pIC50 [1, 5]: < 5.00
SMILES: COc1cc2ncnc(Nc3ccc(Oc4ccccc4)c(C)c3C)c2cc1OC.Cl [Compound 50, N-(2,3-Dimethyl-4-phenoxyphenyl)-6,7-dimethoxyquinazolin-4-amine hydrochloride]
suppression of KSR-stimulated MEK and ERK phosphorylation [3]: inactive

KSR binding (assessed) [1]: non-KSR binders
SMILES: C#Cc1cccc(Nc2ncnc3cc(OCCOC)c(OCCOC)cc23)c1 [erlotinib, reference compound]
MAPK pathway inhibition (pERK, pMEK, pRSK) in combination with trametinib [2]: not observed

pIC50 [1, 5]: < 5.00
competition of ATPbiotin probe labeling in KSR2:MEK1 complexes (in words) [1]: greatly diminishes KSR2:MEK1 activity
SMILES: COc1cc2/c(=N/c3ccc(Oc4ccccc4)cc3)ncn(C)c2cc1OC [Compound 32, (Z)—N-(6,7-Dimethoxy-1-methylquinazolin-4(1H)-ylidene)-4-phenoxyaniline]

KSR binding (assessed) [1]: non-KSR binders
SMILES: Cc1nc(Nc2ncc(C(=O)Nc3c(C)cccc3Cl)s2)cc(N2CCN(CCO)CC2)n1 [dasatinib, reference compound]
MAPK pathway inhibition (pERK, pMEK, pRSK) in combination with trametinib [2]: not observed

KSR binding (assessed) [1]: non-KSR binders
SMILES: CCN(CC)CCNC(=O)c1c(C)[nH]c(/C=C2\C(=O)Nc3ccc(F)cc32)c1C [sutent, reference compound]
MAPK pathway inhibition (pERK, pMEK, pRSK) in combination with trametinib [2]: not observed

KSR binding (assessed) [1]: non-KSR binders
SMILES: CS(=O)(=O)CCNCc1ccc(-c2ccc3ncnc(Nc4ccc(OCc5cccc(F)c5)c(Cl)c4)c3c2)o1 [lapatinib, reference compound]
MAPK pathway inhibition (pERK, pMEK, pRSK) in combination with trametinib [2]: not observed

Second part, the compound before the results:

SMILES: COc1cc2ncnc(Nc3ccc(Oc4ccccc4)cc3)c2cc1OC.Cl [Compound 2, 6,7-Dimethoxy-N-(4-phenoxyphenyl)quinazolin-4-amine]
competition of ATPbiotin probe labeling in KSR2:MEK1 complexes (in words) [1]: competitor of probe labeling

SMILES: CCCS(=O)(=O)Nc1ccc(F)c(C(=O)c2c[nH]c3ncc(Cl)cc23)c1F [PLX4720]
MAPK pathway inhibition (pERK, pMEK, pRSK) in combination with trametinib [2]: did not display the same pathway inhibition

SMILES: CC(C)(C)c1nc(-c2cccc(NS(=O)(=O)c3c(F)cccc3F)c2F)c(-c2ccnc(N)n2)s1 [dabrafenib, reference compound]
suppression of KSR-stimulated MEK and ERK phosphorylation [3]: active
suppression of KSR-stimulated MAPK signaling with active site mutant KSR^A690F ([3]; KSR^A690F mutant): active

SMILES: COc1cc2ncnc(Nc3ccc(O)cc3)c2cc1OC [Compound 7, 4-((6,7-Dimethoxyquinazolin-4-yl)amino)phenol hydrochloride]
pIC50 [1, 5]: < 5.00

SMILES: Nc1ncnc2c1ncn2[C@@H]1O[C@H](COP(=O)(O)OP(=O)(O)OP(=O)(O)O)[C@@H](O)[C@H]1O [ATP, reference compound]
pIC50 [4]: 3.88
pIC50 ([1]; competition with free ATP, purified KSR2:MEK1, read-out: free ATP IC50, ATPbiotin labeling of KSR2): 4.07

SMILES: COc1cc2nccc(Nc3ccc(Oc4ccccc4)cc3)c2cc1OC.Cl [Compound 11, 6,7-Dimethoxy-N-(4-phenoxyphenyl)quinolin-4-amine hydrochloride]
competition of ATPbiotin probe labeling in KSR2:MEK1 complexes (in words) [1]: moderately tolerated

SMILES: COc1ccc(Nc2ncnc3cc(OC)c(OC)cc23)cc1 [Compound 3, 6,7-Dimethoxy-N-(4-methoxyphenyl)quinazolin-4-amine hydrochloride]
pIC50 [1, 5]: < 5.00

Reference: patent publication US10548897B2, “KSR antagonists” (Icahn School of Medicine at Mount Sinai, priority 2015, dated 2020)
